From article PMC8252724 (2021)

Tests used:
[1] = tested on: c-Myc (Pu22) (DNA, G4) TGAGGGTGGGTAGGGTGGGTAA; assay: 1H NMR; conditions: 70 mM KCl, 25 mM KPi; pH 7, 298 K, 10% DMSO-d6, 0.1 mM DNA
[2] = tested on: FAM-Pu22 (DNA, G4) TGAGGGTGGGTAGGGTGGGTAA; assay: microscale thermophoresis; conditions: 150 mM KCl; 10 mM Tris-HCl, pH 7.4
[3] = tested on: c-Myc (Pu22) (DNA, G4) TGAGGGTGGGTAGGGTGGGTAA; assay: thiazole orange displacement (FID); conditions: 140 mM KCl, 20 mM Na cacodylate; pH 7, RT, 10% DMSO; 0.5 μM TO displaced, 0.5 μM DNA
[4] = tested on: FAM-Pu22 (DNA, G4) TGAGGGTGGGTAGGGTGGGTAA; assay: fluorescence intensity titration of labelled DNA; conditions: 150 mM KCl; 10 mM Tris-HCl, pH 7.4, RT, 2-3% DMSO, 50 nM DNA
[5] = tested on: dsDNA 24bp (FAM-duplex) (DNA, duplex) CGCGAATTCGCGCGCGAATTCGCG; assay: microscale thermophoresis; conditions: 150 mM KCl; 10 mM Tris-HCl, pH 7.4
[6] = tested on: c-Myc (Pu22) (DNA, G4) TGAGGGTGGGTAGGGTGGGTAA; assay: 1H NMR titration; conditions: 70 mM KCl, 25 mM KPi; pH 7, 298 K, 10% DMSO-d6, 0.1 mM DNA

With `CN(C)Cc1c[nH]c2ccc(N)cc12` the binding [1] was “weak”, the “K D MST” value [2] was 2.21 ± 0.89 µM and the “DC50 FID” value [3] was 3.83 ± 0.11 µM. For the same molecule, the “K D FAM” value [4] was 6.29 ± 0.71 µM.
For `CN(C)Cc1c[nH]c2ccc([N+](=O)[O-])cc12`, the “K D MST” value [2] was 13.22 ± 0.80 µM, the “DC50 FID” value [3] was 19.11 ± 0.88 µM and the “K D FAM” value [4] was 15.21 ± 1.93 µM.
For `Cc1cc2cc(N)ccc2n1C`, the “K D MST” value [2] was 17.18 ± 0.54 µM, the “DC50 FID” value [3] was 14.53 ± 0.61 µM and the “K D FAM” value [4] was 12.32 ± 0.94 µM.
With `Cn1ccc2cc(N)ccc21` the binding [1] was “weak”, the “K D MST” value [2] was 2.32 ± 0.41 µM and the “DC50 FID” value [3] was 3.71 ± 0.32 µM. For the same molecule, the “K D FAM” value [4] was 6.30 ± 0.63 µM.
For `NCCNCCNCCNCCNCc1c[nH]c2ncccc12`, the “DC50 FID” value [3] was 16.63 ± 1.93 µM.
In the case of `NCCNCCNCCNCCNCc1ccc2c(c1)OCO2`, the “DC50 FID” value [3] is reported as 18.11 ± 1.69 µM.
For `NCCNCCNCCNCCNCc1n[nH]c2ccccc12`, the “DC50 FID” value [3] was 15.63 ± 1.08 µM.
In the case of `Nc1ccc2c(ccn2CCCN2CCCC2)c1`, the “K D MST” value [2] is reported as 2.86 ± 0.33 µM, the Kd [5] is reported as 18.0 ± 1.33 µM and the “DC50 FID” value [3] is reported as 6.31 ± 0.43 µM. For the same molecule, the “K D FAM” value [4] was 7.12 ± 0.45 µM.
In the case of `O=[N+]([O-])c1ccc2[nH]cc(CNCCN3CCCC3)c2c1`, the binding [1] is reported as “yes”, the “K D MST” value [2] is reported as 5.52 ± 0.61 µM and the “DC50 FID” value [3] is reported as 6.81 ± 0.9 µM. The “K D FAM” value [4] was 7.53 ± 0.93 µM.
In the case of `O=[N+]([O-])c1ccc2c(c1)c(CNCCN1CCCC1)cn2CCCN1CCCC1`, the binding [6] is reported as “yes”, the “K D MST” value [2] is reported as 1.30 ± 0.21 µM and the Kd [5] is reported as 32.3 ± 1.69 µM. For the same molecule, the “DC50 FID” value [3] was 3.30 ± 0.86 µM and the “K D FAM” value [4] was 2.81 ± 0.37 µM.
For `O=[N+]([O-])c1ccc2c(ccn2CCCN2CCCC2)c1`, the binding [1] was “yes”, the “K D MST” value [2] was 1.49 ± 0.12 µM and the Kd [5] was 38.1 ± 2.39 µM. The “DC50 FID” value [3] was 5.01 ± 0.15 µM and the “K D FAM” value [4] was 2.43 ± 0.29 µM.
`c1cc2c(cc1CNCCN1CCCC1)OCO2` was tested, and the “DC50 FID” value [3] was 16.11 ± 1.33 µM.
For `c1ccc2c(c1)ccn2CCCN1CCCC1`, the “K D MST” value [2] was 15.11 ± 0.30 µM, the “DC50 FID” value [3] was 19.12 ± .92 µM and the “K D FAM” value [4] was 16.87 ± 1.58 µM.
